The assay relates to L1210 leukemia ip in BDF1 mice, survival T/C. Nature of the assay: NCI In Vivo Anticancer Drug Screen. Data for tumor model L1210 Leukemia (intraperitoneal) in B6D2F1 (BDF1) mice. The following applies: endpoint: mean survival time, higher = longer survival. The essentials: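 Ratio derived from survival: compound-dosed mice over vehicle-dosed mice, all bearing a transplantable tumor.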

[1] abbreviates: dose: 100.0 mg/kg/injection, schedule: Q04DX002 (ip), vehicle: Klucel (hydroxypropylcellulose) (HPC).
[2] abbreviates: dose: 100.0 mg/kg/injection, schedule: Q04DX003 (ip), vehicle: Klucel (hydroxypropylcellulose) (HPC).
[3] abbreviates: dose: 200.0 mg/kg/injection, schedule: Q04DX002 (ip), vehicle: Klucel (hydroxypropylcellulose) (HPC).
Setting [4] is: dose: 400.0 mg/kg/injection, schedule: Q04DX002 (ip), vehicle: Klucel (hydroxypropylcellulose) (HPC).
Setting [5] is: dose: 400.0 mg/kg/injection, schedule: Q04DX003 (ip), vehicle: Klucel (hydroxypropylcellulose) (HPC).
[6] abbreviates: dose: 100.0 mg/kg/injection, schedule: Q01DX009 (ip), vehicle: Klucel (hydroxypropylcellulose) (HPC).
Setting [7] is: dose: 200.0 mg/kg/injection, schedule: Q01DX009 (ip), vehicle: Klucel (hydroxypropylcellulose) (HPC).
Setting [8] is: dose: 400.0 mg/kg/injection, schedule: Q01DX009 (ip), vehicle: Klucel (hydroxypropylcellulose) (HPC).
Setting [9] is: dose: 100.0 mg/kg/injection, schedule: Q04DX002 (ip), vehicle: saline.
The mark [10] stands for this setting: dose: 200.0 mg/kg/injection, schedule: Q04DX002 (ip), vehicle: saline.
[11] abbreviates: dose: 50.0 mg/kg/injection, schedule: Q01DX001 (ip), vehicle: carboxymethylcellulose (CMC).
Setting [12] is: dose: 100.0 mg/kg/injection, schedule: Q01DX001 (ip), vehicle: carboxymethylcellulose (CMC).
[13] abbreviates: dose: 200.0 mg/kg/injection, schedule: Q01DX001 (ip), vehicle: carboxymethylcellulose (CMC).
[14] abbreviates: dose: 400.0 mg/kg/injection, schedule: Q01DX001 (ip), vehicle: carboxymethylcellulose (CMC).
The mark [15] stands for this setting: dose: 100.0 mg/kg/injection, schedule: Q04DX003 (ip), vehicle: saline with Tween-80.
The mark [16] stands for this setting: dose: 200.0 mg/kg/injection, schedule: Q04DX003 (ip), vehicle: saline with Tween-80.
The mark [17] stands for this setting: dose: 200.0 mg/kg/injection, schedule: Q04DX003 (ip), vehicle: Klucel (hydroxypropylcellulose) (HPC).
[18] abbreviates: dose: 50.0 mg/kg/injection, schedule: Q01DX009 (ip), vehicle: Klucel (hydroxypropylcellulose) (HPC).

The results in this text go back to PubChem BioAssay AID248 (DTP/NCI, 2004).

Values joined by “and” are separate entries in the source; they are usually repeats but may differ in a detail not shown here. Equal entries are not always repeated. Toxic doses and inconclusive results are not listed.

As for `O=C=Nc1ccc(C(=O)c2ccccc2)cc1`, the T/C reads like this: (dose: 20.0 mg/kg/injection, schedule: Q01DX009 (ip), vehicle: saline with Tween-80) 93 % of control; (dose: 40.0 mg/kg/injection, schedule: Q01DX009 (ip), vehicle: saline with Tween-80) 93 % of control; (dose: 80.0 mg/kg/injection, schedule: Q01DX009 (ip), vehicle: saline with Tween-80) 90 % of control; (dose: 160.0 mg/kg/injection, schedule: Q01DX009 (ip), vehicle: saline with Tween-80) 90 % of control; (dose: 320.0 mg/kg/injection, schedule: Q01DX009 (ip), vehicle: saline with Tween-80) 93 % of control.

Take `CCc1cccc(CC)c1NC(=O)CCl`: the T/C reads like this: under setting [1], 111 % of control; under setting [2], 108 % of control; under setting [3], 104 % of control; under setting [4], 90 % of control; under setting [5], 95 % of control.

As for `Cc1cccc(N=C/C=C/c2ccccc2)c1C`, the T/C is 94 % of control under setting [6], 100 % of control under setting [7] and 108 % of control under setting [8].

Turning to `Cc1ccc(S(=O)(=O)OC23CCC(C)(CC2)C2(C3)OCCO2)cc1`, the T/C runs as follows: under setting [9], 95 % of control; under setting [10], 98 % of control; (dose: 400.0 mg/kg/injection, schedule: Q04DX002 (ip), vehicle: saline) 98 % of control.

For `C/C(=C\c1ccccc1)C(=O)C1C(c2ccccc2)CC(=O)C(C)C1c1ccccc1` (stereo not given), the T/C (dose: 50.0 mg/kg/injection, schedule: Q04DX002 (ip), vehicle: saline + alcohol) is 98 % of control; the T/C (dose: 100.0 mg/kg/injection, schedule: Q04DX002 (ip), vehicle: saline + alcohol) was 91 % of control; the T/C (dose: 200.0 mg/kg/injection, schedule: Q04DX002 (ip), vehicle: saline + alcohol) was 91 % of control.

As to `COC(=O)NS(=O)(=O)OC`, the T/C under setting [9] was 103 % of control and the T/C under setting [10] was 110 % of control.

On to `COc1c(OC)c(OC)c2c(c1OC)c(=O)c1ccccc1n2C`, for which the T/C was 93 % of control under setting [11], 102 % of control under setting [12], 96 % of control under setting [13] and 98 % of control under setting [14].

As for `CC(C)/C=N/N(C)C(=O)Nc1cccc2ccccc12`, the T/C under setting [11] is 97 % of control, the T/C under setting [12] was 94 % of control, the T/C under setting [13] was 94 % of control and the T/C under setting [14] was 90 % of control.

For `CCOC(=O)c1ccc(OCCOc2ccc(C(C)(C)CC)cc2)cc1`, the T/C reads like this: under setting [15], 102 % of control; under setting [16], 112 % of control; (dose: 400.0 mg/kg/injection, schedule: Q04DX003 (ip), vehicle: saline with Tween-80) 108 % of control.

Take `Cc1nc(N)ncc1CCC1OCCO1`: the T/C was 91 % of control (dose: 25.0 mg/kg/injection, schedule: Q04DX002 (ip), vehicle: saline); 100 % of control (dose: 50.0 mg/kg/injection, schedule: Q04DX002 (ip), vehicle: saline); 175 % of control under setting [1]; 107 % of control under setting [9]; 103 % of control under setting [10].

Take `CC(C)(C)C(=O)Nc1n[nH]c(C#N)c1C#N`: the T/C (dose: 50.0 mg/kg/injection, schedule: Q04DX002 (ip), vehicle: other) is 95 % of control; the T/C (dose: 100.0 mg/kg/injection, schedule: Q04DX002 (ip), vehicle: other) was 106 % of control; the T/C (dose: 200.0 mg/kg/injection, schedule: Q04DX002 (ip), vehicle: other) is 113 % of control.

As to `CCCCC(CC)C(O)C1CCCCC1O` (stereo not given), the T/C reads like this: under setting [6], 102 % of control; under setting [2], 101 % of control; under setting [7], 96 % of control; under setting [17], 96 % of control; under setting [8], 86 % of control; under setting [5], 102 % of control.

On to `O=C(O)c1cc2ccccc2cc1Sc1ccccc1`, for which the T/C reads like this: under setting [15], 103 % of control; under setting [16], 102 % of control.

With `CC(CC(=O)O)C(C(=O)O)C(=O)O` (stereo not given), the T/C (dose: 25.0 mg/kg/injection, schedule: Q01DX009 (ip), vehicle: water) is 110 % of control; the T/C (dose: 50.0 mg/kg/injection, schedule: Q01DX009 (ip), vehicle: water) is 108 % of control; the T/C (dose: 100.0 mg/kg/injection, schedule: Q01DX009 (ip), vehicle: water) was 106 % of control; the T/C (dose: 200.0 mg/kg/injection, schedule: Q01DX009 (ip), vehicle: water) is 101 % of control.

As to `Cc1c2ccccc2cc2cc[n+]3ccccc3c12`, the T/C was 102 % of control (dose: 1.0 mg/kg/injection, schedule: Q01DX015 (ip), vehicle: carboxymethylcellulose (CMC)); 104 % of control (dose: 2.0 mg/kg/injection, schedule: Q01DX015 (ip), vehicle: carboxymethylcellulose (CMC)); 98 % of control (dose: 4.0 mg/kg/injection, schedule: Q01DX015 (ip), vehicle: carboxymethylcellulose (CMC)); 101 % of control (dose: 5.0 mg/kg/injection, schedule: Q01DX001 (ip), vehicle: carboxymethylcellulose (CMC)); 102 % of control and 119 % of control (dose: 8.0 mg/kg/injection, schedule: Q01DX015 (ip), vehicle: carboxymethylcellulose (CMC)); 101 % of control (dose: 10.0 mg/kg/injection, schedule: Q01DX001 (ip), vehicle: carboxymethylcellulose (CMC)). Moreover, the T/C reads like this: (dose: 16.0 mg/kg/injection, schedule: Q01DX015 (ip), vehicle: carboxymethylcellulose (CMC)) 111 % of control; (dose: 20.0 mg/kg/injection, schedule: Q01DX001 (ip), vehicle: carboxymethylcellulose (CMC)) 110 % of control; (dose: 20.0 mg/kg/injection, schedule: Q04DX003 (ip), vehicle: Klucel (hydroxypropylcellulose) (HPC)) 110 % of control; (dose: 40.0 mg/kg/injection, schedule: Q01DX001 (ip), vehicle: carboxymethylcellulose (CMC)) 117 % of control; (dose: 40.0 mg/kg/injection, schedule: Q04DX003 (ip), vehicle: Klucel (hydroxypropylcellulose) (HPC)) 114 % of control.

Turning to `COc1ccc(C)cc1NC(=O)C1CC1`, the T/C was 103 % of control under setting [6], 113 % of control under setting [7] and 104 % of control under setting [8].

Consider `c1ccc2c(-c3c4ccccc4cc4ccccc34)c3ccccc3cc2c1`, for which the T/C was 91 % of control under setting [1], 105 % of control under setting [3] and 91 % of control under setting [4].

As for `NC(=S)N/N=C/c1cc(Br)ccc1O`, the T/C is 100 % of control under setting [12], 100 % of control under setting [13] and 105 % of control under setting [14].

With `O=C(Nc1ccc(Cl)cc1)c1ccccc1`, the T/C under setting [18] is 105 % of control; the T/C under setting [6] was 100 % of control; the T/C under setting [2] was 100 % of control; the T/C under setting [7] is 93 % of control; the T/C under setting [17] was 101 % of control; the T/C under setting [5] was 91 % of control.

Take `Cc1ccccc1C(Br)C1=CC(C)(C)c2ccccc2C1=O` (stereo not given): the T/C reads like this: under setting [6], 101 % of control; under setting [2], 97 % of control; under setting [7], 105 % of control; under setting [17], 92 % of control; under setting [8], 95 % of control; under setting [5], 90 % of control.

For `O=C(Nc1ccc2ncccc2c1)Nc1ccc2ncccc2c1`, the T/C runs as follows: under setting [18], 90 % of control; (dose: 50.0 mg/kg/injection, schedule: Q04DX003 (ip), vehicle: Klucel (hydroxypropylcellulose) (HPC)) 89 % of control; under setting [6], 93 % of control; under setting [7], 93 % of control; under setting [17], 86 % of control.

Turning to `Oc1ccc2ccc(O)c(C(NC(O)c3ccccc3)c3ccccc3)c2c1C(NC(O)c1ccccc1)c1ccccc1` (stereo not given), the T/C is 96 % of control (dose: 10.0 mg/kg/injection, schedule: Q01DX001 (ip), vehicle: saline); 96 % of control (dose: 20.0 mg/kg/injection, schedule: Q01DX001 (ip), vehicle: saline); 93 % of control (dose: 40.0 mg/kg/injection, schedule: Q01DX001 (ip), vehicle: saline).

Regarding `COC(=O)c1cc(NC(=O)Nc2ccc(Cl)cc2[N+](=O)[O-])cc(C(=O)OC)c1`, the T/C under setting [6] is 92 % of control, the T/C under setting [7] is 101 % of control and the T/C under setting [8] is 93 % of control.
